Source: publication PMC7827406, “Structure–Activity Relationship (SAR) Study of Spautin-1 to Entail the Discovery of Novel NEK4 Inhibitors” (International Journal of Molecular Sciences, 2021)
Where two headings read alike, the source gives them in different places.

Key:
Experiment in all cases: biochemical
Set-up in all cases: Eurofins KinaseProfiler full panel at Km ATP, residual kinase activity (%) relative to DMSO
[1] = biological target: PAK3(h) (Homo sapiens, UniProt O75914)
Method in brief: (§1)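 Two 10 µM single-concentration screens were run: a competition-binding screen, in which DNA-tagged kinase bound to immobilized ligands was quantified by qPCR, and a radiometric activity panel at Km ATP. Each is expressed as residual kinase activity (%).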

[2] = biological target: CDKL3(h) (Homo sapiens, UniProt Q8IVW4)
Chain of CDKL3(h) (Q8IVW4 whole entry): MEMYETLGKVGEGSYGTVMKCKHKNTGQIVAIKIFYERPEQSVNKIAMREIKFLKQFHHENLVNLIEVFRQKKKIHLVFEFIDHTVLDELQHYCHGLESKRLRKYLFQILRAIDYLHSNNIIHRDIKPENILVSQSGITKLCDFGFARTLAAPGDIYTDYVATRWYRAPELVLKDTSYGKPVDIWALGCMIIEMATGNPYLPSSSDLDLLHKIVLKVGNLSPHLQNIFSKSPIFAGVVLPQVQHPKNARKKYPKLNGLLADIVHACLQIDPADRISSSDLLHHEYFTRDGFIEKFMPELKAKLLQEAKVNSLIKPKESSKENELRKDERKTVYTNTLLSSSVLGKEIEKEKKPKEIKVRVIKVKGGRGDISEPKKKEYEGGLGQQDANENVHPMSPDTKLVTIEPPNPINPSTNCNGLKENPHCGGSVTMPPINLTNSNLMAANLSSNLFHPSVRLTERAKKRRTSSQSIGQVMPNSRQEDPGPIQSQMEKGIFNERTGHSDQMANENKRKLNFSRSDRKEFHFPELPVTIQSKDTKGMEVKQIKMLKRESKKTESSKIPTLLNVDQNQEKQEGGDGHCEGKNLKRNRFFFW
Method in brief: as §1

[3] = biological target: T1, PKCμ(h) (Homo sapiens, UniProt Q15139)
T1 construct: gene PRKD1
T1 sequence (Q15139 1-912): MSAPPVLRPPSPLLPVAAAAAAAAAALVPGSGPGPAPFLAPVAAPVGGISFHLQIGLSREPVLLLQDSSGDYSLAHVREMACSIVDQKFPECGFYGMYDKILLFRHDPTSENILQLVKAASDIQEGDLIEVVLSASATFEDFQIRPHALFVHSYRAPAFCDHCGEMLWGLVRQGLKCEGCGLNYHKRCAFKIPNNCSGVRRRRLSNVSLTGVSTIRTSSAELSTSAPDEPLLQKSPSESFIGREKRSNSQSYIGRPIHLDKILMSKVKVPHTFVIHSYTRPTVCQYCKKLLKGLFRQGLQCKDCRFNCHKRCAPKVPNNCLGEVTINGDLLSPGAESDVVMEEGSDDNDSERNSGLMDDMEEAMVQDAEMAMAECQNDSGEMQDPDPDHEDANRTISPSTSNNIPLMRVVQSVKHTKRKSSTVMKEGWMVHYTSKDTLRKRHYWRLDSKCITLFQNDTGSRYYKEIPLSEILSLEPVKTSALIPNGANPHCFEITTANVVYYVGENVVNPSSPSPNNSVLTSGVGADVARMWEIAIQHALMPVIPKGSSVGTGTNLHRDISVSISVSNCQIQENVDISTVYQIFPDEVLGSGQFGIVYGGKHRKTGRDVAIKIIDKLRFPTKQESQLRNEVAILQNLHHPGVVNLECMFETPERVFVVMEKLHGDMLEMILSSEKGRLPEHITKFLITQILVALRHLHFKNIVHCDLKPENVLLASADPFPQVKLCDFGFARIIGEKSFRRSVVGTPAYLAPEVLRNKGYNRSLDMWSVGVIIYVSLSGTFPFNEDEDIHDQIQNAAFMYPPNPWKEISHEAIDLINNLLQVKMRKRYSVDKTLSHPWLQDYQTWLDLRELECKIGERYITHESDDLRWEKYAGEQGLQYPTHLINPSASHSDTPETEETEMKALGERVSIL
Method in brief: as §1

[4] = biological target: T2, Aurora-A(h) (Homo sapiens, UniProt O14965)
T2 construct: gene AURKA
T2 sequence (O14965 1-403): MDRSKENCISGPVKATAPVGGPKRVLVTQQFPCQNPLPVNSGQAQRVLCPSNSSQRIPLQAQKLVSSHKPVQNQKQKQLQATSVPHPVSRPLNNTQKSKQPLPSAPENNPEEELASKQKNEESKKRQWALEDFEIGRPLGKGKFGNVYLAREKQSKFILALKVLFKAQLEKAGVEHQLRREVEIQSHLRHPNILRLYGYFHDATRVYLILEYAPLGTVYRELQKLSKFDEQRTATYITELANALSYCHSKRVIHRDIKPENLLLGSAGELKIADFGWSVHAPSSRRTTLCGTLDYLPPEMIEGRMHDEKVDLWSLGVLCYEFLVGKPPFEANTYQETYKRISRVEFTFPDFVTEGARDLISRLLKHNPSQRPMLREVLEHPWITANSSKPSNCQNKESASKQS
Method in brief: as §1

[5] = biological target: SLK(h) (Homo sapiens, UniProt Q9H2G2)
Chain of SLK(h) (Q9H2G2 whole entry): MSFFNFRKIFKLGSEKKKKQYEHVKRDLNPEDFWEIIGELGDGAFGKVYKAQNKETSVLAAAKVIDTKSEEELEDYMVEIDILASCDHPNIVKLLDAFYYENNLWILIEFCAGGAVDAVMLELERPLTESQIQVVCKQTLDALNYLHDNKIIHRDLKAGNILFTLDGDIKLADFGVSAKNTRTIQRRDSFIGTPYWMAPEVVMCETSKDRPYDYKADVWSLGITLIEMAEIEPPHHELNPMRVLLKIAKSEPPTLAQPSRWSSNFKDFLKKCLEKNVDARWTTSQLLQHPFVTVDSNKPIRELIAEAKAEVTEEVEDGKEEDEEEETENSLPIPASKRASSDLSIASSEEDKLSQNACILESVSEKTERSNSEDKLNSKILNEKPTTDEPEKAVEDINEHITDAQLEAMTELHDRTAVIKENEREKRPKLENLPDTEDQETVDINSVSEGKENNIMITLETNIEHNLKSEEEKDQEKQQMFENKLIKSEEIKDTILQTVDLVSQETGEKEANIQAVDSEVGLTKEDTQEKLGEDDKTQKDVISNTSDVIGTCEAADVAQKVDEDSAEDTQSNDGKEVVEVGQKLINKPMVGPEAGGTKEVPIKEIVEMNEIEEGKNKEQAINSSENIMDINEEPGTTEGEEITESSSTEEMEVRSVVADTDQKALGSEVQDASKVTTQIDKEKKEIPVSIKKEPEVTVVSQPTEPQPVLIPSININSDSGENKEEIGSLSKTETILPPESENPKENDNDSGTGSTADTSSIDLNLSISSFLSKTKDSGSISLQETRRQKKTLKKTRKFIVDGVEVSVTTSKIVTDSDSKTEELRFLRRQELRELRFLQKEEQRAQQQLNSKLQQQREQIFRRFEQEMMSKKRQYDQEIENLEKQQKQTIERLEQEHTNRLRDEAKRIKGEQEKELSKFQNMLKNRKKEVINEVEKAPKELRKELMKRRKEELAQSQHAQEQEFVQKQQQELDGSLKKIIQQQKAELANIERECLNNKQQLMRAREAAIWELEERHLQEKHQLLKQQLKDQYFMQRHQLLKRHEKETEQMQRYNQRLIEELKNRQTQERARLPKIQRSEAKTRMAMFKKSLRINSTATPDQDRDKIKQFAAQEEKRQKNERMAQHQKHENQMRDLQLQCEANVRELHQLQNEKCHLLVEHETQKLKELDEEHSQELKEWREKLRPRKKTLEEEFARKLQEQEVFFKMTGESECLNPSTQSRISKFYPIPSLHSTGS
Method in brief: as §1

[6] = biological target: T3, PI3 Kinase (p110a/p65a)(m) (Mus musculus, UniProt P42337)
T3 construct: gene Pik3ca; with p65a
T3 sequence (P42337 whole entry): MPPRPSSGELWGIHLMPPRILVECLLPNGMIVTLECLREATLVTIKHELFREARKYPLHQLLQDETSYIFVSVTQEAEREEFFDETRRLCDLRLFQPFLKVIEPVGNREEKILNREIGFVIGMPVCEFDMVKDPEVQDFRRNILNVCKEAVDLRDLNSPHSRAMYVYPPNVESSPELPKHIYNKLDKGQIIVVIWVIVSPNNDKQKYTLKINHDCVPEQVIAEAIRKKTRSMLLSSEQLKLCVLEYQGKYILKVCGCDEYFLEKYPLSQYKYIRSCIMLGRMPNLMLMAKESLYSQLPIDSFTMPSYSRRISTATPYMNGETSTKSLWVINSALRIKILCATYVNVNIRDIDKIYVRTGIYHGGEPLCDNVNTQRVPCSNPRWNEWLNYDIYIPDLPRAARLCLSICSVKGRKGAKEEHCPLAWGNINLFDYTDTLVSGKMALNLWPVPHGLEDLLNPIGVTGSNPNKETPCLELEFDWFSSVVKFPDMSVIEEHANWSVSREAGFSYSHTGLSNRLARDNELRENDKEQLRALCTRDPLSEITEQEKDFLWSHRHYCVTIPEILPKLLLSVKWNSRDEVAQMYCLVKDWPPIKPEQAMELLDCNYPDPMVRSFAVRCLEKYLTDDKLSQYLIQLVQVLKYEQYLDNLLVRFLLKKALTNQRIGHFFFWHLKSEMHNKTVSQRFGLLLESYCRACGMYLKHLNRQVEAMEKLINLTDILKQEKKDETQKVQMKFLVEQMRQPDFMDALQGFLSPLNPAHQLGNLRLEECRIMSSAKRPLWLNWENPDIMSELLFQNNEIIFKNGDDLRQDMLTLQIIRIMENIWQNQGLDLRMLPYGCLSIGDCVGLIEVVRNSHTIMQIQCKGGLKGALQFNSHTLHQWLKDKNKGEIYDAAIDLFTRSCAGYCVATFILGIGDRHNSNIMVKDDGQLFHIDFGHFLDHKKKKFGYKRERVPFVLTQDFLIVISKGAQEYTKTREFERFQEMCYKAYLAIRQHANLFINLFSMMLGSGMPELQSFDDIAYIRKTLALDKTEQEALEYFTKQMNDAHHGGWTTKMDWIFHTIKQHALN
T3 sequence (P26450 whole entry partner): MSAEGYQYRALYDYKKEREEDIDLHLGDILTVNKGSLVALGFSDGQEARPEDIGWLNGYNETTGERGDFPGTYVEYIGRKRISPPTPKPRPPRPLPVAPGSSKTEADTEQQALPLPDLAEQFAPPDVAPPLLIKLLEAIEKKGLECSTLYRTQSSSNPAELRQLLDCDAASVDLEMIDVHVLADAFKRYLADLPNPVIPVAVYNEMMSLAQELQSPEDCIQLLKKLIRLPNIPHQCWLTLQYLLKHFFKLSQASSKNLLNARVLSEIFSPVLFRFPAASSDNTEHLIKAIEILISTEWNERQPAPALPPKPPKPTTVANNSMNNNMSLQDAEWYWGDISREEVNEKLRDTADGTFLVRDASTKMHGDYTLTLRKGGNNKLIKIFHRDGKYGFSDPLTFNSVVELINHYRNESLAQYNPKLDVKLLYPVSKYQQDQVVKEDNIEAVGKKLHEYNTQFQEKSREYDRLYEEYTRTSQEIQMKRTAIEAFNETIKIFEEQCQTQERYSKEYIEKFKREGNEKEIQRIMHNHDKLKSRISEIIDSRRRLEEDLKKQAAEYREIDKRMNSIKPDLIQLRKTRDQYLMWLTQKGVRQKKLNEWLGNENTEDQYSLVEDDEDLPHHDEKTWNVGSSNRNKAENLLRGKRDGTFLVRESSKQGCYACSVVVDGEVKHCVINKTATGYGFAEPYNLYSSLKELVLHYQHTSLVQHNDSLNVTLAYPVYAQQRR
Method in brief: as §1

[7] = biological target: T4, PRK2(h) (Homo sapiens, UniProt Q16513)
T4 construct: gene PKN2
Method in brief: as §1

[8] = biological target: T5, JNK2α2(h) (Homo sapiens, UniProt P45984)
T5 construct: gene MAPK9; isoform alpha2
T5 sequence (P45984 whole entry, canonical isoform): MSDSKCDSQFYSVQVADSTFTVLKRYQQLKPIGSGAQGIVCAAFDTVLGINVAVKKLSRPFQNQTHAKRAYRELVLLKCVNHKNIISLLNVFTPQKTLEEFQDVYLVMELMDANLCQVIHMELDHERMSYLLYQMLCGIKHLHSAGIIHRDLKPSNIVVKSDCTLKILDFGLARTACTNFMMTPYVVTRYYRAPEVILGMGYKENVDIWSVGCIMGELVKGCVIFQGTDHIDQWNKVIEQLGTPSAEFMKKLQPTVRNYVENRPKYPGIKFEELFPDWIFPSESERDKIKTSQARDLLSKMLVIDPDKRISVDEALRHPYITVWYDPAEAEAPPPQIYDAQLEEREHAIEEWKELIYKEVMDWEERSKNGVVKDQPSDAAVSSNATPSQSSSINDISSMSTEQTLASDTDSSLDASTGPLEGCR
Method in brief: as §1

[9] = read-out: Residual activity (%) Spautin-1 5aa
[10] = read-out: Residual activity (%) 5as
[11] = read-out: Residual activity (%) 5at
[12] = read-out: Residual activity (%) 5ay

Chain of PAK3(h) (O75914 whole entry): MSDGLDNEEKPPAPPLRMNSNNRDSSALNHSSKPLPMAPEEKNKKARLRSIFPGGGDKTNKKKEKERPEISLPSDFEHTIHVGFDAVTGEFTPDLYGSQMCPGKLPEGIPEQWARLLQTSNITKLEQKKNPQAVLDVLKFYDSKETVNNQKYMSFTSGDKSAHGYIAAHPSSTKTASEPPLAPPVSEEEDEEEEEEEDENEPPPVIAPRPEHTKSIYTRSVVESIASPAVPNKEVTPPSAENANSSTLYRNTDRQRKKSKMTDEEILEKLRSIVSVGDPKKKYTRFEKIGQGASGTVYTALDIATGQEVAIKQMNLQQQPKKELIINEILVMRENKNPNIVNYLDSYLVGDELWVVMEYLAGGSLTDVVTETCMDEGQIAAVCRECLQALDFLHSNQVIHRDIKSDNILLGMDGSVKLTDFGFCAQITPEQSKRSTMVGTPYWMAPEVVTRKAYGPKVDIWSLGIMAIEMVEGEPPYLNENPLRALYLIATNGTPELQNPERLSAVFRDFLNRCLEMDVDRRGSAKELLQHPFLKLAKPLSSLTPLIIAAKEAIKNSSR

Fc1ccc(CNc2ncnc3ccc(F)cc23)cc1 [5aa, 6-Fluoro-N-(4-fluorobenzyl)-4-Quinazolinamine] gave a remaining activity at 10 µM [1, 9] of 96%, a remaining activity at 10 µM [2, 9] of 77% and a remaining activity at 10 µM [3, 9] of 97%. For the same compound, the remaining activity at 10 µM [4, 9] was 81%, the remaining activity at 10 µM [5, 9] was 98% and the remaining activity at 10 µM [6, 9] was 98%. It also gave a remaining activity at 10 µM [7, 9] of 108% and a remaining activity at 10 µM [8, 9] of 89%.
Fc1ccc(CCNc2ncnc3ccc(F)cc23)cc1 [5as, 6-Fluoro-N-[2-(4-Fluorophenyl)Ethyl]-4-Quinazolinamine] was tested, and the remaining activity at 10 µM [1, 10] was 107%, the remaining activity at 10 µM [2, 10] was 65% and the remaining activity at 10 µM [3, 10] was 85%. It also gave a remaining activity at 10 µM [4, 10] of 87%, a remaining activity at 10 µM [5, 10] of 77% and a remaining activity at 10 µM [6, 10] of 86%. The remaining activity at 10 µM [7, 10] was 104% and the remaining activity at 10 µM [8, 10] was 78%.
With Fc1ccc2ncnc(NCCc3ccc(Cl)cc3)c2c1 [5at, N-[2-(4-Chlorophenyl)Ethyl]-6-Fluoro-4-Quinazolinamine] the remaining activity at 10 µM [1, 11] was 93%, the remaining activity at 10 µM [2, 11] was 71% and the remaining activity at 10 µM [3, 11] was 80%. The remaining activity at 10 µM [4, 11] was 70%, the remaining activity at 10 µM [5, 11] was 78% and the remaining activity at 10 µM [6, 11] was 87%. For the same compound, the remaining activity at 10 µM [7, 11] was 96% and the remaining activity at 10 µM [8, 11] was 88%.
In the case of COc1ccc2ncnc(Nc3cccc(F)c3)c2c1 [5ay, N-(3-Fluorophenyl)-6-Methoxy-4-Quinazolinamine], the remaining activity at 10 µM [1, 12] is reported as 99%, the remaining activity at 10 µM [2, 12] is reported as 29% and the remaining activity at 10 µM [3, 12] is reported as 93%. It also gave a remaining activity at 10 µM [4, 12] of 79%, a remaining activity at 10 µM [5, 12] of 70% and a remaining activity at 10 µM [6, 12] of 101%. The remaining activity at 10 µM [7, 12] was 95% and the remaining activity at 10 µM [8, 12] was 82%.
